Assay results from patent US20230119013A1, “N-CYANOPYRROLIDINES WITH ACTIVITY AS USP30 INHIBITORS” (MISSION THERAPEUTICS LIMITED, priority 2020, published 2023).
Where two headings read alike, the source gives them in different places.

Assays:
[1] = test system: T1, UCHL1, USP1, USP2, USP6, USP9x, USP10, USP15, USP16, USP20, USP21, USP22, USP25, USP28, USP35, USP36, USP46/UAF1; experiment: DUB biochemical IC50 assays (off-target panel); conditions: each of UCHL1, USP1, USP2, USP6, USP9x, USP10, USP15, USP16, USP20, USP21, USP22, USP25, USP28, USP35, USP36, USP46/UAF1; read-out: IC50 (μM) against DUB panel
T1 construct: other: each of UCHL1, USP1, USP2, USP6, USP9x, USP10, USP15, USP16, USP20, USP21, USP22, U

USP30 = molecular target: T2, USP30 (Homo sapiens, UniProt Q70CQ3); experiment: USP30 endogenous cellular target engagement western blot assay (Cell TE WB); type: cell-based; conditions: Hela cells stably overexpressing YFP-Parkin, 1 hour
T2 construct: USP30 endogenous cellular target engagement western blot (WB) assay; endogenous in cells; host or cells: HeLa cells stably overexpressing YFP-Parkin
Procedure: Hela cells stably overexpressing YFP-Parkin were seeded into 6 well dishes. Once adhered, cells were treated with appropriate concentrations of test compounds or vehicle control for 1 hour at 37° C., 5% CO2. Whole cell lysates were prepared by scraping the cells into cold PBS, centrifuging and lysing in lysis buffer (50 mM Tris-base, pH 7.5, 50 mM NaCl, 1% NP-40/Igepal CA-630, 2 mM MgCl2, 10% Glycerol, 5 mM beta-mercaptoethanol, cOmplete mini tablets EDTA free (Roche), PhosStop tablets (Roche)) for 10 mins. The equivalent of 20 μg of protein from the cleared cell lysate was incubated with a final conc of 2.5 μM HA-Ahx-Ahx-Ub-VME probe at room temperature. The reaction was stopped by addition of 5×SDS sample loading buffer and proteins separated by SDS PAGE and western blotting. USP30 was detected using an anti-USP30 Sheep S746D antibody (MRC PPU Reagents and Services) and a rabbit anti sheep secondary IgG (H+L) horseradish peroxidase conjugated (Thermo #31480) and visualised using ECL reagent (GE #RPN2109) on a GE LAS4000 imager. Target engagement was measured by quantitation of the bands corresponding to USP30 and USP30 bound to the Ub-VME probe and expression of this proportion compared to vehicle treated control.
MDR1-MDCK (Madin-Darby Canine Kidney cell monolayer) (in vitro) flux assay. Cell TE WB: USP30 endogenous cellular target engagement western blot (WB) assay. […]

[2] = test system: T3, UCHL1, USP1, USP2, USP6, USP9x, USP10, USP15, USP16, USP20, USP21, USP22, USP25, USP28, USP35, USP36, USP46/UAF1; experiment: DUB biochemical IC50 assays (off-target panel); conditions: each of UCHL1, USP1, USP9x, USP10, USP15, USP16, USP20, USP21, USP22, USP25, USP28, USP35, USP36, USP46/UAF1; read-out: IC50 (μM) against DUB panel
T3 construct: other: each of UCHL1, USP1, USP9x, USP10, USP15, USP16, USP20, USP21, USP22, USP25, USP28

T2 sequence (Q70CQ3 whole entry): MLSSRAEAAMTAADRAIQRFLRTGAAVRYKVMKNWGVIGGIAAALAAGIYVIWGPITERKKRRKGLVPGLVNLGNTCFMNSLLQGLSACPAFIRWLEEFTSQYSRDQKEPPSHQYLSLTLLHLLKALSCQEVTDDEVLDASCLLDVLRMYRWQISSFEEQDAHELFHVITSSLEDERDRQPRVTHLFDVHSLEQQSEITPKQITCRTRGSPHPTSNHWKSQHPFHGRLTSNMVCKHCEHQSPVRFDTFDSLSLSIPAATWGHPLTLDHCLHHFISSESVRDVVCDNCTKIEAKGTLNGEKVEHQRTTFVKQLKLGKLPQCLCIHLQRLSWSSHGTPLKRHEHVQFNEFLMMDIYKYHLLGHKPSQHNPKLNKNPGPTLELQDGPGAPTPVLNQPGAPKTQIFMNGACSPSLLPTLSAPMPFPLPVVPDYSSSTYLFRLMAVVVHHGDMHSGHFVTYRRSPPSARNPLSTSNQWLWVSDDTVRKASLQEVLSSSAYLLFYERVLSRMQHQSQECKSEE

SMILES	IC50 [1] [µM]	EC50 (USP30) [nM]	IC50 [2] [µM]
COC[C@@H]1C[C@@H](NC(=O)c2ncc(-c3cccc(OC(F)(F)F)c3)o2)CN1C#N [Example 1, N-((3R,5S)-1-Cyano-5-(methoxymethyl)pyrrolidin-3-yl)-5-(3-(trifluoromethoxy)phenyl)oxazole-2-carboxamide]	≥ 4.4	–	–
C[C@@H]1C[C@@H](NC(=O)c2ncc(-c3cccc(OC(F)(F)F)c3)o2)CN1C#N [Example 2, N-((3R,5R)-1-Cyano-5-methylpyrrolidin-3-yl)-5-(3-(trifluoromethoxy)phenyl)oxazole-2-carboxamide]	–	7	≥ 4.7
